# From ChEMBL document CHEMBL1201862, “PubChem BioAssay data set” (2004)
# Calls of active or inactive are those of the source. Rule as the data show it, for most assays here: actives have a measured EC50 and inactives only a lower limit.
# Key:
# Protein skinhead-1 = target: T1, Protein skinhead-1 (Caenorhabditis elegans, UniProt P34707); assay type: functional
# T1 sequence (P34707 whole entry): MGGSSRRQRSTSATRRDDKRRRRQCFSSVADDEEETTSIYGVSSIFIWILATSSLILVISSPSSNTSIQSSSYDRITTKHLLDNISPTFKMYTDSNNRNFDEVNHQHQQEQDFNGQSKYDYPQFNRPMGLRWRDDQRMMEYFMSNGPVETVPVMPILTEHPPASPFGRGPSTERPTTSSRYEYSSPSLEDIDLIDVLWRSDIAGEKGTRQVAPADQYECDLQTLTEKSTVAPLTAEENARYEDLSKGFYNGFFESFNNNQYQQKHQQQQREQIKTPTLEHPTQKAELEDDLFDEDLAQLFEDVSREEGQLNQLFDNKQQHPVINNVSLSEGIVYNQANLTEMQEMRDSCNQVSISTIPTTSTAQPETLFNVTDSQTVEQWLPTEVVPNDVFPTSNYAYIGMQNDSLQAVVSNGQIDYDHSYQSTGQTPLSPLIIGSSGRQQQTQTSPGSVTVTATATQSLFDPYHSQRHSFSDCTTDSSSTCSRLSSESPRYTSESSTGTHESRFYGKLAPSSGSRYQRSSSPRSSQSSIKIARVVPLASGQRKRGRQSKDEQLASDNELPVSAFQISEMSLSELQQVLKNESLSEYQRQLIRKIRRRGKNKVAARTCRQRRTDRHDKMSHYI
# [1] = NIH-3T3 fibroblast cytotoxicity, dose response, cytotoxicity control, cell-based, fluorescence, Alamar Blue, secondary assay (AID 2327); assay type: functional;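 also: NIH-3T3 mouse fibroblasts cultured with fluconazole at 8 µg/mL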
# [2] = fluconazole-exposed Candida albicans growth modulators – fluorescence, retest, confirmation (AID 2467); assay type: functional, cell-based
# [3] = target: T2, Corticotropin-releasing factor receptor 2/Corticotropin-releasing factor-binding protein (Homo sapiens, UniProt P24387+Q13324); assay: activators of CRF receptor 2 with binding protein – uHTS hits, confirmation (AID 602473); assay type: functional; settings: read-out: EC50_Mean
# T2 sequence (Q13324 whole entry): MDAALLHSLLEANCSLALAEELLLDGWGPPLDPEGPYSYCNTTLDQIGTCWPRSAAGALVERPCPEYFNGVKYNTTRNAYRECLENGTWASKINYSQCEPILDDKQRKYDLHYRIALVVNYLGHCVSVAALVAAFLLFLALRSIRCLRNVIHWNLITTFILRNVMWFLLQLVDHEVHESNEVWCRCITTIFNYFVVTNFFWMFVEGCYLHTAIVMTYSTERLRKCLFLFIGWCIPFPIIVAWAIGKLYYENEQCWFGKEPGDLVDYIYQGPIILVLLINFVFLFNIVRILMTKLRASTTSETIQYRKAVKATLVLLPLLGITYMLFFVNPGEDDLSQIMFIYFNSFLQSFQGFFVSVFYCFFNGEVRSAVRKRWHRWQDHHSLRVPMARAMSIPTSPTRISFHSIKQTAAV
# T2 sequence (P24387 whole entry): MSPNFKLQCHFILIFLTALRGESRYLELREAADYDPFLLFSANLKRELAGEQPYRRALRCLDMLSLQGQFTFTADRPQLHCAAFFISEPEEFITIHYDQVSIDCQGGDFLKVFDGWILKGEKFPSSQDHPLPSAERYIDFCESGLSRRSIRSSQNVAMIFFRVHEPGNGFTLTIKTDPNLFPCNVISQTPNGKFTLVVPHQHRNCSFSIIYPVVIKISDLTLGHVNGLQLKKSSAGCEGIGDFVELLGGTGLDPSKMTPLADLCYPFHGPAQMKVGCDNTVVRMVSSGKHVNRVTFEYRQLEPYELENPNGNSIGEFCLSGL
# [4] = Luminescence Cell-Based Dose Response HTS to Identify Activators of Luciferase Translation or Activity in H4 […] Cells. [Related pubchem assays: 1829 (Project Summary), 1814 (Primary HTS)]; assay type: functional
# [5] = Luminescence Cell-Based Dose Confirmation HTS to Identify Activators of 5'UTR Stem-Loop Driven Alpha-Synuclein mRNA Translation in H4 Neuroglioblastoma Cells. [Related pubchem assays: 1829 (Project Summary), 1814 (Primary HTS)]; assay type: functional
# H4 = assay: Luminescence Cell-Based Dose Response HTS to Identify Activators of 5'UTR Stem-Loop Driven Prion Protein mRNA Translation in H4 Neuroglioblastoma Cells. [Related pubchem assays: 1829 (Project Summary), 1814 (Primary HTS)]; assay type: functional; settings: Homo sapiens
# [6] = microbe, parasite or virus in culture; assay type: functional; settings: Mycobacterium tuberculosis
# [7] = viability of uninfected HEp-2 cells – cell-based, HTS, cytotoxicity control for RSV inhibitor project, dose response (AID 2410); assay type: functional; settings: human respiratory syncytial virus
# [8] = NIH3T3 cell viability loss – ATP luminescence, mouse fibroblasts, counter-screen, dose response (AID 2010); assay type: functional, cell-based;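 also: cells exposed to compound for about 90 hours before reading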
# [9] = Trypanosoma cruzi growth suppression in host cells – NIH3T3 host cells, beta-gal luminescence, confirmation (AID 2044); assay type: functional, cell-based;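 also: intracellular parasites grown in NIH/3T3 mouse fibroblasts as host cells; luminescent beta-galactosidase reporter signal from transgenic T. cruzi replicating inside host cells; inhibitors lower the luminescence signal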
# Streptococcus = assay: GAS UMAA2166 growth inhibition – luminescence, BacTiterGlo, counter-screen for streptokinase expression inhibitor project, dose response (AID 1915); assay type: functional, organism-based;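 also: potency for reduction of bacterial viability or growth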
# [10] = system: Streptococcus sp. 'group A'; assay: Streptococcus pyogenes SK(-)GAS viability under kanamycin – luminescence, BacTiterGlo, confirmation, counter-screen for streptokinase expression inhibitor project, dose response (AID 1900); assay type: functional, organism-based
compound,measurement,setting,value
Cc1ccc(NC(=O)CNC(=O)c2cccs2)cc1S(=O)(=O)Nc1ccc(Cl)cc1,IC50,Protein skinhead-1,> 100 µM (inactive)
O=C(NN=C(S)Nc1cccc(C(F)(F)F)c1)c1ccc(Cl)cc1Cl,EC50,[1],> 160 µM (inactive)
same,EC50,[2],4.65 µM (active)
same,EC50,[3],> 53 µM (inactive)
C=CCNC(=O)c1cc2c(=O)n3ccccc3nc2s1,EC50,[4],0.166 µM (active)
same,IC50,Protein skinhead-1,> 100 µM (inactive)
same,EC50,[5],1.08 µM (active)
Cc1onc(-c2ccccc2)c1C(=O)NN=C(N)COc1ccc(Cl)cc1,EC50,[1],> 150 µM (inactive)
same,EC50,[2],> 38 µM (not active)
Oc1oc(-c2ccccc2Br)nc1/C=N/c1ccccn1,EC50,H4,> 120 µM (not active)
same,EC50,[4],13 µM (active)
same,EC50,[5],59.1 µM (active)
C=CCN1C(=O)C(=O)N(Cc2nc3ccccc3s2)C1=O,EC50,H4,0.283 µM (active)
same,EC50,[4],36.3 µM (active)
same,IC50,Protein skinhead-1,> 100 µM (inactive)
same,EC50,[5],10.7 µM (active)
CCN1C(=O)/C(=C/N(C)c2ccccc2)OC1=S,IC50,Protein skinhead-1,76.6 µM (inactive)
O=c1cc(/C=C/c2ccccc2)oc2ccccc12,IC50,Protein skinhead-1,78.9 µM (inactive)
same,CC50,[6],> 40 µM (active)
O=C(C1=NNCC1c1ccccc1)C1OC1c1ccccc1 (stereo not drawn),EC50,H4,> 120 µM (not active)
same,EC50,[4],13.5 µM (active)
same,EC50,[5],20.8 µM (active)
Cc1cccc(NC(S)=NNC(=O)c2csc(C(C)C)c2)c1,EC50,[1],> 150 µM (inactive)
same,EC50,[4],36.9 µM (active)
same,CC50,[7],27.1 µM (active)
same,EC50,[5],20.3 µM (active)
COc1cc(/C=C2\C=CC(=O)O2)cc(OC)c1,EC50,H4,> 120 µM (not active)
same,EC50,[4],12.2 µM (active)
same,EC50,[5],13.3 µM (active)
O=[N+]([O-])c1ccc(S(=O)(=O)Nc2nc3ccccc3nc2Nc2ccccc2)cc1,EC50,[1],> 150 µM (inactive)
same,EC50,[2],2.06 µM (active)
CCSc1ccc2cc(OC)ccc2[n+]1CC,EC50,[1],> 160 µM (inactive)
same,EC50,[2],> 38 µM (not active)
same,EC50,[8],> 60 µM (not active)
same,EC50,[9],6.53 µM (active)
CC(=O)Nc1cc(C(F)(F)F)ccc1OCC1CCCO1 (stereo not drawn),IC50,Protein skinhead-1,> 100 µM (inactive)
CCCc1ccc(OCC(=O)Nc2cc(S(=O)(=O)CC)ccc2O)cc1,EC50,[1],> 160 µM (inactive)
same,EC50,[2],1.45 µM (active)
O=C(Nc1ccc(Br)c(Cl)c1)c1ccco1,IC50,Protein skinhead-1,14.2 µM (active)
O=C(O)c1cnc(-c2ccccc2)nc1Sc1ccccc1Cl,EC50,[1],> 160 µM (inactive)
same,EC50,[2],0.356 µM (active)
Cc1c(Cl)cccc1Nc1c([N+](=O)[O-])nn(-c2ccccc2)[n+]1[O-],IC50,Protein skinhead-1,> 100 µM (inactive)
Fc1ccccc1-c1nc(-c2ccc(Cl)cc2)no1,IC50,Protein skinhead-1,> 100 µM (inactive)
CCOC(=O)C1CCN(C(=O)CSCc2nc(-c3ccc(OCC)cc3)oc2C)CC1,CC50,[6],> 40 µM (active)
Cc1nn(-c2ccccc2)c(Cl)c1/C=N/NC(=O)c1ccc(NS(=O)(=O)c2cccs2)cc1,EC50,H4,9.52 µM (active)
same,EC50,[4],7.45 µM (active)
same,EC50,Streptococcus,5.04 µM (active)
same,EC50,[10],2.1 µM (active)
same,EC50,[5],17.3 µM (active)
N#C/C(=C/c1ccc(Sc2nc3ccccc3[nH]2)o1)c1cccc(Br)c1,CC50,[6],> 40 µM (active)
COc1ccccc1Nc1nc(N)nc(CCl)n1,CC50,[6],1.88 µM (active)
O=C1C(Cl)=C(N2CCOCC2)C(=O)N1CCc1ccccc1,EC50,H4,> 120 µM (not active)
same,EC50,[4],1.56 µM (active)
same,EC50,[5],0.656 µM (active)
COc1ccc(NN=Nc2ccc([N+](=O)[O-])cc2)cc1,EC50,H4,64.4 µM (active)
same,EC50,[4],0.485 µM (active)
same,EC50,[5],1.01 µM (active)
O=C(/C=C/c1cccs1)c1ccc(Br)cc1,IC50,Protein skinhead-1,73.8 µM (inactive)
